Assay results from patent US20250228851A1, “ALLOSTERIC INHIBITOR COMPOUNDS FOR OVERCOMING CANCER RESISTANCE” (priority 2021, published 2025).

System: PINCO transfected Ba/F3 cells
Experiment: XTT cell viability, Ba/F3 transduced with empty vector (PINCO)
Format: cell-based, murine
Conditions: increasing concentration up to 10 μM
Method: • 1. Ba/F3 cells were obtained from the German Collection of Microorganisms and Cell Cultures (DSMZ, Braunschweig, Germany) and maintained in RPMI 1640 medium supplemented with 10% fetal calf serum (Invitrogen) containing 10 ng/ml of interleukin-3 (Cell Concepts, Umkirch, Germany). Ecotropic Phoenix cells and Rat-1 cells were cultured in Dulbecco's modified Eagle's medium supplemented with 10% fetal calf serum. GNF-2 (Sigma-Adrich, Steinheim, Germany) was dissolved in dimethyl sulfoxide and added at a final concentration of […]. Cell growth was assessed by dye exclusion using Trypan blue. Proliferation was assessed using the XTT proliferation kit (Roche, Mannheim, Germany), according to the manufacturer's instructions. • 2. Ba/F3: IL-3 dependent lymphatic murine pro B cell line. Ba/F3 cells expressing either p185-BCR-ABL1 (p185-BCR-ABL-Ba/F3) or p210-BCR-ABL (p210-BCR-ABL-Ba/F3). p185-BCR-ABL1 (activated kinases substitute for the IL-3 signaling and therefore render the cells IL3 independent. Ba/F3 cells expressing either p185-BCR-ABL (p185-Ba/F3) or p210-BCR-ABL (p210-Ba/F3). Ba/F3 cells obtained from the German Collection of Microorganisms and Cell Cultures (DSMZ, Braunschweig, Germany). • 3. Mutant transduced Ba/F3 cells (T315I-p185-BCR-ABL1 or T315I-p210-BCR-ABL1): Ba/F3 cells expressing either the mutated forms T315I-p185-BCR-ABL1 or T315I-p210-BCR-ABL1. • 4. WT-Sup-B15: A Ph+ ALL cell line harboring the p185-BCR-ABL. Sup-B15: established from the bone marrow of a child with acute lymphoblastic leukemia (B cell precursor ALL) in second relapse in 1984; described in the literature to carry the ALL-variant (m-BCR) of the BCR-ABL1 fusion gene (e1-a2) correct, because it results in the p185-BCR-ABL version. • 5. […]
FIG. 11: Antiproliferative effect of Compound 16 on PINCO transfected Ba/F3 cells. […] Proliferation status was determined by the metabolic activity of cells given by the reduction rate of XTT to formazan. […]

**Q.** Which “antiproliferative response (in words)” value does the source give for COc1ccc(C(=O)N2CCN(c3cc(Nc4ccc(OC(F)(F)F)cc4)ncn3)CC2)cc1OC [Compound 16] here?
**A.** No effect
